Assays:
Format in all cases: in vivo
[1] = tested on: […], PRESL.; assay: Preemergence weed control under flooded paddy conditions, MOOVA (Monochoria); settings: 0.500 kg/ha, preemergence, 3-4 weeks after treatment
Outline: (§1)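 Visual 0-9 score (stand, vigor, malformation, size, chlorosis, appearance vs untreated control) taken 3-4 wk after treatment. Test compounds were added into flood water (1.5-3 cm over silt loam) as 50/50 v/v aqueous/acetone, equivalent to about 0.5-0.063 kg/ha a.i.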

[2] = tested on: ABUTILON THEOPHRASTI, MEDIC.; assay: Preemergence herbicidal evaluation, ABUTH (Velvetleaf); settings: rated four to five weeks after treatment
From the text: (§2) Results of herbicide evaluation are expressed on a rating scale (0-9). The scale is based upon a visual observation of plant stand, vigor, malformation, size, chlorosis and overall plant appearance as compared with a control.
(§3) The preemergence herbicidal activity of the test compounds of the present invention is exemplified by the following tests in which the seeds of a variety of monocotyledonous and dicotyledonous plants are separately mixed with potting soil and planted on top of approximately one inch of soil in separate pint cups. […] The treated cups are then placed on greenhouse benches, watered and cared for in accordance with conventional greenhouse procedures. From four to five weeks after treatment, the tests are terminated and each cup is examined and rated according to the rating system provided in Example 40.
(§4) The compounds evaluated are reported by compound number given in Example 40.

[3] = tested on: AMBROSIA ARTEMISIIFOLIA, L.; assay: Preemergence herbicidal evaluation, AMBEL (Ragweed, Common); settings: rated four to five weeks after treatment
Outline: (§5)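 Seeds mixed with potting soil were planted on about one inch of soil in cups, then sprayed with aqueous acetone solution of test compound at about 0.125 to 0.50 kg per hectare. Plants grown under greenhouse conditions; visual rating on a 0-9 scale versus untreated control at 4-5 weeks.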

[4] = tested on: ECHINOCHLOA ORYZOIDES (ARD.)FRITSCH; assay: Preemergence weed control under flooded paddy conditions, ECHORC (Watergrass (Calif.)); settings: 0.500 kg/ha, preemergence, 3-4 weeks after treatment
Outline: as §1

[5] = tested on: CYPERUS SEROTINUS, ROTTB.; assay: Preemergence weed control under flooded paddy conditions, CYPSE (Flatsedge); settings: 0.500 kg/ha, preemergence, 3-4 weeks after treatment
Outline: as §1

[6] = tested on: ECHINOCHLOA CRUS-GALLI, (L) BEAU; assay: Postemergence herbicidal evaluation, ECHCG (Barnyardgrass); parameters: key to ECHCG rating / Herbicidal effect rating, ECHCG / ECHCG: 0-9 visual rating scale vs untreated control
Outline: (§6)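 Postemergence foliar spray at approximately 0.125–0.500 kg/ha onto two-week seedlings; greenhouse hold, then 0–9 visual injury rating after 4–5 weeks.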

[7] = tested on: SAGITTARIA PYGMAEA, L.; assay: Preemergence weed control under flooded paddy conditions, SAGPY (Arrowhead (Pygmaea)); settings: 0.500 kg/ha, preemergence, 3-4 weeks after treatment
Outline: as §1

[8] = tested on: AMBROSIA ARTEMISIIFOLIA, L.; assay: Postemergence herbicidal evaluation, AMBEL (Ragweed, Common)
Outline: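 Postemergence herbicidal activity on AMBEL (common ragweed) was assessed on two-week-old seedlings grown in jiffy flats. Treatment solutions of 50/50 acetone/water with 0.5% TWEEN®20 surfactant were sprayed at 40 psi. After four to five weeks in the greenhouse, plants were scored 0-9 against a control for stand, vigor, malformation, size, chlorosis and overall appearance, with multiple tests averaged.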

[9] = tested on: CASSIA OBTUSIFOLIA, L.; assay: Preemergence herbicidal evaluation, CASOB (Sicklepod); settings: rated four to five weeks after treatment
Outline: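 Preemergence herbicidal activity against sicklepod was assessed by planting seed mixed with potting soil atop about one inch of soil in pint cups. After treatment the cups were watered and handled per standard greenhouse practice. Tests ended four to five weeks later, with plant stand, vigor, malformation, size, chlorosis and overall appearance scored 0-9 relative to a control.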

[10] = tested on: IPOMOEA SPP.; assay: Preemergence herbicidal evaluation, IPOSS (Morningglory spp.); settings: rated four to five weeks after treatment
Outline: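 This preemergence greenhouse test scored herbicidal effect on morningglory planted in pint cups, with seed mixed into potting soil and placed over about one inch of soil. After treatment the cups were watered and kept under conventional care. At four to five weeks, plant stand, vigor, malformation, size, chlorosis and overall appearance were compared with a control and rated 0-9.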

[11] = tested on: ECHINOCHLOA CRUS-GALLI, (L) BEAU; assay: Preemergence herbicidal evaluation, ECHCG (Barnyardgrass); settings: rated four to five weeks after treatment
Outline: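 In this preemergence herbicide test, cups holding seeds of ECHCG sown in potting soil over roughly one inch of soil were treated and then grown under conventional greenhouse care. Tests were ended four to five weeks after treatment, and injury was scored 0-9 from stand, vigor, malformation, size, chlorosis and overall appearance relative to a control.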

[12] = tested on: TRITICUM AESTIVUM, CV. APOLLO; assay: Preemergence herbicidal evaluation, TRZAWO (Wheat, Winter, CV. APOLLO); settings: rated four to five weeks after treatment
Outline: as §5

[13] = tested on: SETARIA VIRIDIS, (L) BEAU; assay: Preemergence herbicidal evaluation, SETVI (Foxtail, Green); settings: rated four to five weeks after treatment
From the text: as §2, §3, §4

[14] = tested on: SETARIA VIRIDIS, (L) BEAU; assay: Postemergence herbicidal evaluation, SETVI (Foxtail, Green); parameters: key to SETVI rating / Herbicidal effect rating, SETVI / SETVI: 0-9 visual rating scale vs untreated control
Outline: as §6

[15] = tested on: CYPERUS IRIA; assay: Preemergence weed control under flooded paddy conditions, CYPIR (Rice Flatsedge); settings: 0.500 kg/ha, preemergence, 3-4 weeks after treatment
Outline: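 This preemergence test mimicked flooded paddy conditions: rice flatsedge propagules were sown in the upper 0.5 cm of silt loam in undrained 32 oz. containers (10.5 cm diameter), with water held 1.5 to 3 cm over the soil. After normal greenhouse care, plants were scored 0-9 for stand, vigor, malformation, size, chlorosis and appearance relative to controls.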

[16] = tested on: ORYZA SATIVA, L. TEBONNET; assay: Rice tolerance to post-transplant applications under flooded paddy conditions, ORYSAT (Rice, Tebonnet); settings: 0.500 kg/ha, post-transplant rice, 3-4 weeks after treatment
Outline: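 Visual 0-9 rating against untreated control (stand, vigor, malformation, size, chlorosis, overall appearance), taken 3-4 weeks after treatment. Flooded silt loam, water at 1.5-3 cm; two 10-day-old seedlings per pot; compound applied to flooded soil surface 3 days post-transplant at ~0.5-0.063 kg/ha.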

[17] = tested on: CASSIA OBTUSIFOLIA, L.; assay: Postemergence herbicidal evaluation, CASOB (Sicklepod); parameters: key to CASOB rating / Herbicidal effect rating, CASOB / CASOB: 0-9 visual rating scale vs untreated control
Outline: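 Ratings (0-9) reflect visual stand, vigor, malformation, size and chlorosis compared with untreated plants, assessed 4-5 weeks after postemergence spraying. Treatment was applied to roughly two-week-old seedlings at about 0.125-0.500 kg/ha in acetone/water with 0.5% Tween 20; replicate tests were averaged.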

[18] = tested on: GLYCINE MAX(L) MERR. CV. WILLIAMS; assay: Preemergence herbicidal evaluation, GLXMAW (Soybean, Williams); settings: rated four to five weeks after treatment
Outline: as §5

Cn1c(=O)n(CC(N)=O)c(=O)n(-c2cccc(Oc3ccc(C(F)(F)F)cc3Cl)c2)c1=O [Compound 46, 3-{5-[(2-Chloro-α,α,α-trifluoro-p-tolyl)-oxy]phenyl}tetrahydro-5-methyl-2,4,6-trioxo-s-triazine-1(2H)-acetamide]
0.0: Herbicidal effect rating, MOOVA [1] | ABUTH herbicidal rating ([2]; Rate 0.125 kg/ha) | ABUTH herbicidal rating ([2]; Rate 0.250 kg/ha) | ABUTH herbicidal rating ([2]; Rate 0.500 kg/ha) | AMBEL herbicidal rating ([3]; Rate 0.125 kg/ha) | AMBEL herbicidal rating ([3]; Rate 0.250 kg/ha) | AMBEL herbicidal rating ([3]; Rate 0.500 kg/ha) | Herbicidal effect rating, ECHORC [4] | Herbicidal effect rating, CYPSE [5] | ECHCG rating ([6]; Rate 0.125 kg/ha) | ECHCG rating ([6]; Rate 0.250 kg/ha) | ECHCG rating ([6]; Rate 0.500 kg/ha) | Herbicidal effect rating, SAGPY [7] | AMBEL rating ([8]; Rate 0.125 kg/ha) | AMBEL rating ([8]; Rate 0.250 kg/ha) | AMBEL rating ([8]; Rate 0.500 kg/ha) | CASOB herbicidal rating ([9]; Rate 0.125 kg/ha) | CASOB herbicidal rating ([9]; Rate 0.250 kg/ha) | CASOB herbicidal rating ([9]; Rate 0.500 kg/ha) | IPOSS herbicidal rating ([10]; Rate 0.125 kg/ha) | IPOSS herbicidal rating ([10]; Rate 0.250 kg/ha) | IPOSS herbicidal rating ([10]; Rate 0.500 kg/ha) | ECHCG herbicidal rating ([11]; Rate 0.125 kg/ha) | ECHCG herbicidal rating ([11]; Rate 0.250 kg/ha) | ECHCG herbicidal rating ([11]; Rate 0.500 kg/ha) | SETVI herbicidal rating ([13]; Rate 0.125 kg/ha) | SETVI herbicidal rating ([13]; Rate 0.250 kg/ha) | SETVI herbicidal rating ([13]; Rate 0.500 kg/ha) | SETVI rating ([14]; Rate 0.125 kg/ha) | SETVI rating ([14]; Rate 0.250 kg/ha) | SETVI rating ([14]; Rate 0.500 kg/ha) | Herbicidal effect rating, CYPIR [15] | Herbicidal effect rating, ORYSAT [16] | CASOB rating ([17]; Rate 0.125 kg/ha) | CASOB rating ([17]; Rate 0.250 kg/ha) | CASOB rating ([17]; Rate 0.500 kg/ha)
1.0: TRZAWO herbicidal rating ([12]; Rate 0.125 kg/ha) | TRZAWO herbicidal rating ([12]; Rate 0.250 kg/ha) | TRZAWO herbicidal rating ([12]; Rate 0.500 kg/ha) | GLXMAW herbicidal rating ([18]; Rate 0.125 kg/ha) | GLXMAW herbicidal rating ([18]; Rate 0.250 kg/ha) | GLXMAW herbicidal rating ([18]; Rate 0.500 kg/ha)

Reference: patent EP0745595A1, “3-(3-Aryloxyphenyl)-1-(substituted methyl)-s-triazine-2,4,6-oxo or thiotrione herbicidal agents” (American Cyanamid Company, priority 1995, dated 1996)
